From ChEMBL document CHEMBL1201862, “PubChem BioAssay data set” (2004)
Counter-ions that a name gives are not always drawn.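 Each compound was tested at five concentrations against cells in 96-well plates for 48 hours. GI50: concentration for 50% inhibition of growth.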 The source made the active and inactive calls. Cut-off read from the data, not from the text of the source: active = GI50 up to about 1.1 µM and inactive = higher.

How the values were obtained:
Assay in all cases: NCI anticancer screen, dose series, 48 h
PC-3 = tested on: PC-3
NCI-H522 = tested on: NCI-H522
MOLT-4 = tested on: MOLT-4
BT-549 = tested on: BT-549
SF-539 = tested on: SF-539
SNB-75 = tested on: SNB-75
K562 = tested on: K562
TK-10 = tested on: TK-10
Malme-3M = tested on: Malme-3M
RPMI-8226 = tested on: RPMI-8226
SW-620 = tested on: SW-620
M14 = tested on: M14
COLO 205 = tested on: COLO 205
EKVX = tested on: EKVX
CAKI-1 = tested on: CAKI-1
SF-268 = tested on: SF-268
SK-MEL-2 = tested on: SK-MEL-2
A549 = tested on: A549
A498 = tested on: A498
HL-60 = tested on: HL-60

| Compound | GI50 (PC-3) | GI50 (NCI-H522) | GI50 (MOLT-4) | GI50 (BT-549) | GI50 (SF-539) | GI50 (SNB-75) | GI50 (K562) | GI50 (TK-10) | GI50 (Malme-3M) | GI50 (RPMI-8226) | GI50 (SW-620) | GI50 (M14) | GI50 (COLO 205) | GI50 (EKVX) | GI50 (CAKI-1) | GI50 (SF-268) | GI50 (SK-MEL-2) | GI50 (A549) | GI50 (A498) | GI50 (HL-60) |
| --- | --- | --- | --- | --- | --- | --- | --- | --- | --- | --- | --- | --- | --- | --- | --- | --- | --- | --- | --- | --- |
| C/C(=N\NC(=S)N1CCC1)c1ccccn1 | 0.0512 µM (active) | < 0.0497 µM (active) | 0.01 µM (active) | 11.5 µM (inactive) | 0.114 µM (active) | 0.838 µM (active) | 0.01 µM (active) | 1.29 µM (inactive) | 0.175 µM (active) | 0.01 µM (active) | < 0.0103 µM (active) | 0.01 µM (active) | 0.01 µM (active) | 0.0658 µM (active) | 0.0398 µM (active) | 0.824 µM (active) | 1.97 µM (inactive) | 0.0246 µM (active) | 0.446 µM (active) | 0.01 µM (active) |
| CSc1nc(C)cc(Nc2ccc(O)c(CN3CCOCC3)c2)n1 | > 100 µM (inactive) | > 100 µM (inactive) | 53.6 µM (inactive) | > 100 µM (inactive) | > 100 µM (inactive) | > 100 µM (inactive) | > 100 µM (inactive) | > 100 µM (inactive) | > 100 µM (inactive) | > 100 µM (inactive) | > 100 µM (inactive) | > 100 µM (inactive) | > 100 µM (inactive) | 83 µM (inactive) | > 100 µM (inactive) | > 100 µM (inactive) | > 100 µM (inactive) | > 100 µM (inactive) | > 100 µM (inactive) | > 100 µM (inactive) |
| COC(NC(N)=O)C(=O)O (stereo not given) | > 100 µM (inactive) | > 100 µM (inactive) | > 100 µM (inactive) | > 100 µM (inactive) | > 100 µM (inactive) | > 100 µM (inactive) | > 100 µM (inactive) | > 100 µM (inactive) | > 100 µM (inactive) | > 100 µM (inactive) | > 100 µM (inactive) | > 100 µM (inactive) | > 100 µM (inactive) | > 100 µM (inactive) | > 100 µM (inactive) | > 100 µM (inactive) | > 100 µM (inactive) | > 100 µM (inactive) | > 100 µM (inactive) | 0.495 µM (active) |
| Cc1ccc(Nc2nc3[nH]ccc3c(=O)[nH]2)cc1 | 37.8 µM (inactive) | > 100 µM (inactive) | 39.7 µM (inactive) | 70.3 µM (inactive) | > 100 µM (inactive) | 2.24 µM (inactive) | > 100 µM (inactive) | 95.7 µM (inactive) | > 100 µM (inactive) | > 100 µM (inactive) | > 100 µM (inactive) | > 100 µM (inactive) | > 100 µM (inactive) | 76.2 µM (inactive) | 85.5 µM (inactive) | 65.3 µM (inactive) | > 100 µM (inactive) | 66.1 µM (inactive) | 18.1 µM (inactive) | 75.5 µM (inactive) |
| CC(=O)O[C@H]1C(=O)[C@@]2(C)[C@H]([C@H](OC(=O)c3ccccc3)[C@]3(O)C[C@H](OC(=O)[C@H](O)[C@@H](NC(=O)c4ccccc4)c4ccccc4C)C(C)=C1C3(C)C)[C@]1(OC(C)=O)CO[C@@H]1C[C@@H]2O | 0.258 µM (active) | 0.556 µM (active) | 0.411 µM (active) | 0.687 µM (active) | 0.433 µM (active) | 0.767 µM (active) | 0.211 µM (active) | 2.71 µM (inactive) | 1.66 µM (inactive) | 0.0904 µM (active) | 0.351 µM (active) | 0.55 µM (active) | 0.136 µM (active) | 7.4 µM (inactive) | 5.35 µM (inactive) | 1.2 µM (inactive) | 2.34 µM (inactive) | 1.7 µM (inactive) | 0.444 µM (active) | 0.0659 µM (active) |
| CN1C[C@H](C(=O)N[C@]2(C)O[C@@]3(O)[C@@H]4CCCN4C(=O)[C@H](Cc4ccccc4)N3C2=O)C=C2c3cccc4[nH]cc(c34)C[C@H]21 [ERGOTAMINE TARTRATE] | 18.3 µM (inactive) | 16.3 µM (inactive) | 23.9 µM (inactive) | 20.9 µM (inactive) | 12.1 µM (inactive) | 35.6 µM (inactive) | 25.4 µM (inactive) | 17.4 µM (inactive) | 18.3 µM (inactive) | 22.9 µM (inactive) | 23.4 µM (inactive) | 22.3 µM (inactive) | 16.5 µM (inactive) | 30.8 µM (inactive) | 26.4 µM (inactive) | 13.2 µM (inactive) | 17.4 µM (inactive) | 37.8 µM (inactive) | 15 µM (inactive) | 19.2 µM (inactive) |
